Results on 8 molecules are retold here after patent US8173674B2, “Sulfonyl-phenyl-2H-[1,2,4]oxadiazol-5-one derivatives, processes for their preparation and their use as pharmaceuticals” (Sanofi-Aventis, priority 2006, dated 2012).

Each structure is given as a SMILES string. pEC50: −log10 of the molar value. Where two headings read alike, the source gives them in different places.

In assay [1] the target is T1, PPARdelta (Macaca mulatta, UniProt I0FFS1).
T1 sequence (I0FFS1 1-441): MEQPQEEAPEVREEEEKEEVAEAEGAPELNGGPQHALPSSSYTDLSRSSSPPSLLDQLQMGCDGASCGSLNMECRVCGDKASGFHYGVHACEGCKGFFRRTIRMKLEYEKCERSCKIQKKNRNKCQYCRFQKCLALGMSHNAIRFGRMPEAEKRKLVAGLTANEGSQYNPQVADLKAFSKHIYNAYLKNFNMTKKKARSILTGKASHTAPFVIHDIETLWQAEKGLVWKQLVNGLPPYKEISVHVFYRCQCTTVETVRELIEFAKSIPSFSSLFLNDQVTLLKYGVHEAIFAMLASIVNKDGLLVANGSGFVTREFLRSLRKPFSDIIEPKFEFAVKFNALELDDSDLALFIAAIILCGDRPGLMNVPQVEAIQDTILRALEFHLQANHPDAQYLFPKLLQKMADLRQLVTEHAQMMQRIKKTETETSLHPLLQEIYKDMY
Conditions: obese, insulin resistant rhesus monkeys; cited from earlier work.

The next assay concerns the target T2, human PPARalpha (Homo sapiens, UniProt Q07869).
T2 construct: amino acids S167-Y468; expressed in transfected cells
T2 sequence (Q07869 167-468): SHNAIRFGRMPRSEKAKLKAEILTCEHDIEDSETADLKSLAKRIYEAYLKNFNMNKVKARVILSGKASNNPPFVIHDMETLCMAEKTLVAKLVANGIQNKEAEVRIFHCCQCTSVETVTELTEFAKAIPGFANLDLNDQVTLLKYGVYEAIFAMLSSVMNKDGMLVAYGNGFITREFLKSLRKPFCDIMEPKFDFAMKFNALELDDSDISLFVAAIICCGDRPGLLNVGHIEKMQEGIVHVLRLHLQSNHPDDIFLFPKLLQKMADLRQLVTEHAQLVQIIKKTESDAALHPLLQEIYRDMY
The experiment in a line: cellular PPARalpha assay (luciferase reporter, stably transfected HEK cell line). Type of assay: cell-based. As for the experimental part:
(§1) The potency of substances which bind to human PPARalpha and activate it in an agonistic manner is analyzed using a stably transfected HEK cell line (HEK=human embryo kidney) which is referred to here as PPARalpha reporter cell line. It contains two genetic elements, a luciferase reporter element (pdeltaM-GAL4-Luc-Zeo) and a PPARalpha fusion protein (GR-GAL4-humanPPARalpha-LBD) which mediates expression of the luciferase reporter element depending on a PPARalpha ligand. The stably and constitutively expressed fusion protein GR-GAL4-humanPPARalpha-LBD binds in the cell nucleus of the PPARalpha reporter cell line via the GAL4 protein portion to the GAL4 DNA binding motifs 5′-upstream of the luciferase reporter element which is stably integrated in the genome of the cell line. There is only weak expression of the luciferase reporter gene in the absence of a PPARalpha ligand if fatty acid-depleted fetal calf serum (cs-FCS) is used in the assay. PPARalpha ligands bind and activate the PPARalpha fusion protein and thereby stimulate the expression of the luciferase reporter gene. The luciferase which is formed can be detected by means of chemiluminescence via an appropriate substrate.
The PPARalpha reporter cell line was prepared in two stages. Firstly, the luciferase reporter element was constructed and stably transfected into HEK cells. For this purpose, five binding sites of the yeast transcription factor GAL4 (Accession # AF264724) were cloned in 5′-upstream of a 68 bp-long minimal MMTV promoter (Accession # V01175). The minimal MMTV promoter section contains a CCAAT box and a TATA element in order to enable efficient transcription by RNA polymerase II. The cloning and sequencing of the GAL4-MMTV construct took place in analogy to the description of Sambrook J. et. al. (Molecular cloning, Cold Spring Harbor Laboratory Press, 1989). Then the complete Photinus pyralis gene (Accession # M15077) was cloned in 3′-downstream of the GAL4-MMTV element. After sequencing, the luciferase reporter element consisting of five GAL4 binding sites, MMTV promoter and luciferase gene was recloned into a plasmid which confers zeocin resistance in order to obtain the plasmid pdeltaM-GAL4-Luc-Zeo. This vector was transfected into HEK cells in accordance with the statements in Ausubel, F. M. et al. (Current protocols in molecular biology, Vol. 1-3, John Wiley & Sons, Inc., 1995).
In a second step, the PPARalpha fusion protein (GR-GAL4-humanPPARalpha-LBD was introduced into the stable cell clone described. For this purpose, initially the cDNA coding for the N-terminal 76 amino acids of the glucocorticoid receptor (Accession # P04150) was linked to the cDNA section coding for amino acids 1-147 of the yeast transcription factor GAL4 (Accession # P04386). The cDNA of the ligand-binding domain of the human PPARalpha receptor (amino acids S167-Y468; Accession # S74349) was cloned in at the 3′-end of this GR-GAL4 construct. The fusion construct prepared in this way (GR-GAL4-humanPPARalpha-LBD) was recloned into the plasmid pcDNA3 (Invitrogen) in order to enable constitutive expression therein by the cytomegalovirus promoter. This plasmid was linearized with a restriction endonuclease and stably transfected into the previously described cell clone containing the luciferase reporter element. The finished PPARalpha reporter cell line which contains a luciferase reporter element and constitutively expresses the PPARalpha fusion protein (GR-GAL4-human PPARalpha-LBD) was isolated by selection with zeocin (0.5 mg/ml) and G418 (0.5 mg/ml).
The activity of PPARalpha agonists is determined in a 3-day assay which is described below: […]
For orientation: Reporter assays use an easily measured gene product as a stand-in for the process of interest.

In assay [2] the test system is PPARdelta. Conditions: diabetic animal model; cited from earlier work.
For another assay, the target named is T3, human PPARdelta (Homo sapiens, UniProt Q03181).
T3 construct: amino acids S139-Y441; expressed in transfected cells
T3 sequence (Q03181 139-441): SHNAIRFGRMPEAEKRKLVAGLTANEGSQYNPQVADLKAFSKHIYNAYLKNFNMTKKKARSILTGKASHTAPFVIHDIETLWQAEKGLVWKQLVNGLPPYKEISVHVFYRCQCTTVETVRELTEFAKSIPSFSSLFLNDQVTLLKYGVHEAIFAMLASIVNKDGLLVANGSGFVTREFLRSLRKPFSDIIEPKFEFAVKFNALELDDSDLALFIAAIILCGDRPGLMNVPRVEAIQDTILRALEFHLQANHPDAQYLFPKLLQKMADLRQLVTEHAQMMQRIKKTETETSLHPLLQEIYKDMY
The experiment in a line: cellular PPARdelta assay (luciferase reporter, stably transfected HEK cell line). The assay is classed as cell-based. Conditions: GR-GAL4-humanPPARdelta-LBD. As to the method: as §1, with “PPARdelta” for “PPARalpha”, “In analogy to the assay described for PPARalpha, the PPARdelta reporter cell line also” for “It”, “(GR-GAL4-humanPPARdelta-LBD)” for “(GR-GAL4-humanPPARalpha-LBD)”, “GR-GAL4-humanPPARdelta-LBD” for “GR-GAL4-humanPPARalpha-LBD”, “little” for “weak”, “stimulate” for “stimulate the”
The production of the stable PPARdelta reporter cell line is based on a stable HEK-cell clone which was stably transfected with a luciferase reporter element. This step was already described above in the section “construction of the PPARalpha reporter cell line”. […]
The activity of PPARdelta agonists is determined in a 3-day assay in exact analogy to the procedure already described for the PPARalpha reporter cell line except that the PPARdelta reporter cell line and a specific PPARdelta agonist was used as a standard to control test efficacy.

Assay [3] relates to PPARdelta/PPARalpha. The settings on record: two weeks clinical trials, healthy volunteers; cited from earlier work.
The test system of assay [4] is PPARdelta/PPARalpha. The settings on record: rhesus and cynomolgus monkeys; cited from earlier work.
Setting [5] is: read-out: PPARalpha EC50 values (range given).
The mark [6] stands for this setting: GR-GAL4-humanPPARalpha-LBD, read-out: PPARalpha EC50.

For `Cc1cc(SCc2sc(-c3ccc(C(F)(F)F)cc3)nc2C)ccc1OCC(=O)O` [GW501516], at PPARdelta [1], the HDL-cholesterol result is on record as “raises”, the insulin levels entry is given as “decreases”, the “plasma LDL-cholesterol” value was “decreases” and the triglycerides entry is “decreases”.
By pEC50 is commonly meant the EC50 on a negative log10 scale, so that one unit is a factor of ten. Consider `CC1(C)CN(S(=O)(=O)c2ccc(-c3nc(=O)o[nH]3)c(Cl)c2)c2ccc(-c3ccc(C(F)(F)F)cc3)cc21` [Example 4, 3-{2-Chloro-4-[3,3-dimethyl-5-(4-trifluoromethyl-phenyl)-2,3-dihydro-indole-1-sulfonyl]-phenyl}-2H-[1,2,4]oxadiazol-5-one], for which the negative logarithm of the EC50 (pEC50) on human PPARalpha (setting [5]) was 5.30 to 6.00.
Take `CCCc1c(OCCCOc2ccc(OCC(=O)O)cc2)ccc(C(C)=O)c1O` [Example L-165041]: the plasma cholesterol result with PPARdelta [2] is listed as “raises”.
As for `CC1(C)CN(S(=O)(=O)c2ccc(-c3nc(=O)o[nH]3)cc2)c2ccc(-c3ccc(C(F)(F)F)cc3)cc21` [Example 2, 3-{4-[3,3-Dimethyl-5-(4-trifluoromethyl-phenyl)-2,3-dihydro-indole-1-sulfonyl]-phenyl}-2H-[1,2,4]oxadiazol-5-one], the pEC50 on human PPARalpha (setting [6]) was 5.45; at human PPARalpha (setting [5]) it was 5.30 to 6.00; at human PPARdelta, 7.82.
On the same counts, the results for `O=c1[nH]c(-c2ccc(S(=O)(=O)N3CCc4cc(-c5ccc(C(F)(F)F)cc5)ccc43)cc2Cl)no1` [Example 3, 3-{2-Chloro-4-[5-(4-trifluoromethyl-phenyl)-2,3-dihydro-indole-1-sulfonyl]-phenyl}-4H-[1,2,4]oxadiazol-5-one] are 5.95, 5.30 to 6.00 and 8.52.
`CCCc1c(OCCCSc2nnc(SCC(=O)O)s2)ccc(C(C)=O)c1O` [YM-16638]: the figures for the plasma lipids result with PPARdelta/PPARalpha [3] and in the assay on PPARdelta/PPARalpha [4] were “acts in a similar manner” and “significantly lowers”, respectively.
With `O=c1nc(-c2ccc(S(=O)(=O)N3CCc4ccc(-c5ccc(C(F)(F)F)cc5)cc4C3)cc2Cl)[nH]o1` [Example 5, 3-{2-Chloro-4-[7-(4-trifluoromethyl-phenyl)-3,4-dihydro-1H-isoquinoline-2-sulfonyl]-phenyl}-2H-[1,2,4]oxadiazol-5-one], the negative logarithm of the EC50 (pEC50) on human PPARalpha (setting [6]) was 5.79; at human PPARalpha (setting [5]), 5.30 to 6.00; at human PPARdelta, 7.46.
As to `O=c1[nH]c(-c2ccc(S(=O)(=O)N3CCc4cc(-c5ccc(C(F)(F)F)cc5)ccc43)cc2)no1` [Example 1, 3-{4-[5-(4-Trifluoromethyl-phenyl)-2,3-dihydro-indole-1-sulfonyl]-phenyl}-4H-[1,2,4]oxadiazol-5-one], the negative-log EC50 (pEC50) at human PPARalpha (setting [5]) is 5.30 to 6.00.
